# Legend:
# Stamm HK4 (DSM 2938) = assay: Growth of strain HK4 on butyrobetaine esters or butyrobetaine as sole C source; assay type: cell-based, Agrobacterium/Rhizobium HK4 (DSM 2938); details: 30°C, 140 upm, 48 to 96 h
# Protocol: Der Stamm HK4 (DSM 2938) wurde auf Minimalmedium Agarplatten unter Zusatz von 0,4% (w/v) Betain als einziger C-Quelle nach Einzelkolonie-Ausstrich bei 30°C für 48 bis 72 h inkubiert. Zur Anzucht wurden Einzelkolonien des Stammes von der Agarplatte in das Minimalmedium enthaltend Butyrobetain-methylester (BBMe) und Butyrobetain-ethylester (BBEt) als jeweils einziger C-Quelle überimpft und bei 30°C und 140 upm für 48 bis 96 h inkubiert. Es wurde ein Kontrollversuch durchgeführt, bei dem die Anzucht des Stammes HK4 (DSM 2938) unter den gleichen Bedingungen, jedoch unter Zusatz von Butyrobetain anstelle eines Butyrobetain-esters als einziger C-Quelle, erfolgte.
# [1] = Control: storage of butyrobetaine esters in the medium without cells (hydrolytic stability); assay type: physicochemical; details: same medium and conditions as Example 2 (30°C, 74 h) but without cells
# Protocol: Die Stämme HK13 (DSM 2903) und HK1349 (DSM 3944) wurden jeweils in "Nutrient Yeast broth" Vorkulturmedium (10 mL), welchem L-Carnitin (0,05% (w/v)) als Induktor des L-Carnitinstoffwechsels zugesetzt wurde, überimpft und 2 Tage bei 30°C und 140 upm inkubiert. Die Vorkulturen (0,01 mL) wurde in das Minimalmedium (10 mL), welches zusätzlich 0,02% (w/v) Betain, 0,05% (v/v) Glycerin, 0,50% (w/v) L-Glutamat und entweder 0,75% (w/v) Butyrobetain-methylester (BBMe) oder 0,75% (w/v) Butyrobetain-ethylester (BBEt) enthielt, überimpft und bei 30°C und 140 upm inkubiert. Nach 40 h betrug die OD650 von beiden Kulturen ca. 9,0 und die Kulturen befanden sich in der stationären Phase. Nach weiteren 34 h wurden Proben entnommen. Die Zellen wurden zentrifugiert (11 000 upm, 5 min) und der Überstand wurde mittels HPLC auf den Gehalt an Butyrobetain, L-Carnitin und nicht umgesetzten Butyrobetain-ester untersucht. Die Ergebnisse sind in Tabelle 2 zusammengefasst. Als Kontrollversuch wurden Butyrobetain-methylester (BBMe) und Butyrobetain-ethylester (BBEt) jeweils im gleichen Medium und unter den gleichen Bedingungen, jedoch ohne Zusatz von Zellen, gelagert. […]
# [2] = tested on: Hydrolasen im Zellextrakt des Stammes HK1349 (DSM 3944); assay: Substrate specificity of the hydrolases of HK1349 (pH-stat titration); assay type: biochemical, Agrobacterium/Rhizobium HK1349 (DSM 3944); details: 5% (v/v) ester emulsion, 37°C; for Spezifische Hydrolase-Aktivität [U/mg Protein]: lyophilised Triton X-114 supernatant of HK1349; for Relative spezifische Hydrolase-Aktivität [%]: 100% = 0,039 U/mg Protein
# Protocol: Die gemäss Beispiel 4.1. erhaltene Zellsuspension (HK1349 (DSM 3944), OD650 nm 37, 50 mM Natriumphosphat-Puffer, pH 7,5) wurde durch 10 minütige Behandlung mit Ultraschall unter Eisbadkühlung aufgeschlossen, mit Triton X-114 (5% (v/v); 30 min; 25°C) inkubiert und dann zentrifugiert (4 000 upm; 10 min; 4°C). Der Überstand wurde lyophilisiert. Der lyophilisierte Überstand (100 mg) wurde in Natriumphosphatpuffer (50 mM; pH 7,5; 1,0 mL) gelöst und zu Emulsionen von Essigsäure-ethylester, Buttersäure-ethylester und Buttersäure-methylester (5% (v/v) Ester emulgiert mittels eines Ultraturrax in destilliertem Wasser enthaltend 2% (w/v) Gummi arabicum; 20 mL) bei 37°C gegeben. Die bei der Hydrolyse des Esters freigesetzte Säure wird mit NaOH (0,01 M) unter Verwendung eines pH-Stats titriert. 1 U (Unit) entspricht der Menge an Säure (in µmol), die pro Minute freigesetzt wird. Die höchste spezifische Hydrolase-Aktivität (0,039 U/mg Protein) wurde als 100%-Wert betrachtet. Die Ergebnisse sind in Tabelle 5 zusammengestellt.
# [3] = tested on: Hydrolasen im Zellextrakt des Stammes HK1349 (DSM 3944); assay: Hydrolase activity of HK1349 supernatant after cell disruption and treatment with detergents (4-nitrophenyl acetate assay); assay type: biochemical, Agrobacterium/Rhizobium HK1349 (DSM 3944); details: supernatant after cell disruption and treatment with 5% (v/v) detergent, 30 min, 25°C; 100% = 0,30 U/mg Protein
# Protocol: Die Bestimmung der Hydrolase-Aktivität erfolgte photometrisch mittels Essigsäue-4-nitrophenylester-Assay. Hierzu wurde die Proteinlösung (900 µL) mit einer Lösung von Essigsäure-4-nitrophenylester (10 mM in Dimethylsulfoxid; 100 µL) bei 25°C versetzt. Die Absorption des während der Hydrolyse gebildeten 4-Nitrophenols (e = 15 × 10^3 × M^-1 cm^-1) wurde bei 410 nm gemessen. 1 Unit (U) entspricht der Menge 4-Nitrophenol (in µmol), die pro Minute freigesetzt wird. Die Bestimmung des Proteingehaltes der eingesetzten Proteinlösung erfolgte mit dem BCA (Bicin choninic acid) Protein Assay kit (Pierce) nach Anleitung des Herstellers. Die spezifische Hydrolase-Aktivität wird angegeben in U/mg Protein und entspricht der Menge 4-Nitrophenol (in µmol), die pro Minute und mg Protein freigesetzt wird.
# Die gemäss Beispiel 4.1. erhaltene Zellsuspension (HK1349 (DSM 3944), OD650 nm 37, 50 mM Natriumphosphat-Puffer, pH 7,5) wurde durch 10 minütige Behandlung mit Ultraschall unter Eisbadkühlung aufgeschlossen, mit verschiedenen Detergentien (5% (v/v) Detergenz; 30 min; 25°C) inkubiert und die Zelltrümmer wurden abzentrifugiert (4 000 upm; 10 min; 4°C). Die spezifische Hydrolase-Aktivität der Überstände wurde mittels Essigsäure-4-nitrophenylester-Assay bestimmt. Die höchste spezifische Hydrolase-Aktivität (0,30 U/mg Protein) wurde als 100%-Wert betrachtet. Die Ergebnisse sind in Tabelle 4 zusammengestellt. Die höchste spezifische Hydrolase-Aktivität wurde unter Verwendung von Triton X-114 beobachtet.
# [4] = 1,0 % (w/v) as sole C source in minimal medium
Molecule,Wachstum [OD650] (Stamm HK4 (DSM 2938); [4]),Spezifische Hydrolase-Aktivität [U/mg Protein] [2],Relative spezifische Hydrolase-Aktivität [%] [2] [%],Relative spezifische Hydrolase-Aktivität [%] [3] [%],other results
"CCOC(=O)CCC[N+](C)(C)C [BBEt, Butyrobetain-ethylester]","0,76 OD650",,,,"Wachstum [OD650] (Stamm HK4 (DSM 2938); 0,2 % (w/v) as sole C source in minimal medium): 0,23 OD650; Hydrolyse der Butyrobetain-ester zu Butyrobetain [1]: keine Hydrolyse"
"COC(=O)CCC[N+](C)(C)C [BBMe, Butyrobetain-methylester]","0,76 OD650",,,,Hydrolyse der Butyrobetain-ester zu Butyrobetain [1]: keine Hydrolyse
CCCC(=O)OCC [Buttersäure-Ethylester],,"0,028 U/mg Protein",72,,
CCCC(=O)OC [Buttersäure-Methylester],,"0,038 U/mg Protein",97,,
C[N+](C)(C)CCCC(=O)[O-] [Butyrobetain],"7,0 OD650",,,,
CCOC(C)=O [Essigsäure-Ethylester],,"0,039 U/mg Protein",100,,
CCCCCCCCCCCCOS(=O)(=O)O [SDS],,,,26,
CCCCCCCC/C=C\CCCCCCCC(=O)OCCOCC(OCCO)C1OCC(OCCO)C1OCCO (stereo not drawn) [Tween 80],,,,80,
Triton X-100,,,,64,
